Experimental data reported in ChEMBL document CHEMBL4020815 (J Med Chem, 2017).
≈ marks a conversion by molar mass, not a printed value.

Legend:
[1] = target: T1, Bifunctional purine biosynthesis protein ATIC (Homo sapiens, UniProt P31939); assay: Inhibition of human full length N-terminal His-tagged AICARFT expressed in Escherichia coli BL21 (DE3) using ZMP/10-formyltetrahydrofolate as substrate assessed as decrease in IMP levels after 1 hr by mass spectrometric method
[2] = target: T1, Bifunctional purine biosynthesis protein ATIC; assay: Inhibition of human AICARFT
[3] = target: T1, Bifunctional purine biosynthesis protein ATIC; assay: Inhibition of AICARFT in human NCI-H460 cells assessed as increase in ZMP levels using low folate media after 16 hrs by LC-MS method; assay type: cell-based
[4] = Fraction unbound in CD-1 mouse plasma; assay type: ADME, cell-free
[5] = Plasma concentration in CD-1 mouse at 10 mg/kg, po after 1 hr by LC-MS/MS method; assay type: ADME, organism-based
[6] = Permeability across apical to basolateral side in MDCK cells at 20 uM; assay type: ADME, cell-based, Canis lupus familiaris; settings: dog
Mus musculus [7] = assay: Unbound AUC in CD-1 mouse at 5 mg/kg, po by LC-MS/MS method; assay type: ADME, organism-based; settings: in vivo
[8] = Half life in CD-1 mouse at 5 mg/kg, po by LC-MS/MS method; assay type: ADME, organism-based; settings: in vivo
Mus musculus [9] = assay: Unbound clearance in CD-1 mouse at 5 mg/kg, iv by LC-MS/MS method; assay type: ADME, organism-based; settings: in vivo
Mus musculus [10] = assay: Unbound Cmax in CD-1 mouse at 5 mg/kg, po by LC-MS/MS method; assay type: ADME, organism-based; settings: in vivo
[11] = Oral bioavailability in CD-1 mouse at 5 mg/kg by LC-MS/MS method; assay type: ADME, organism-based; settings: in vivo
Mus musculus [12] = assay: Unbound volume of distribution at steady state in CD-1 mouse at 5 mg/kg, iv by LC-MS/MS method; assay type: ADME, organism-based; settings: in vivo
[13] = Antitumor activity against human MDA-MB-231met2 cells xenografted in athymic nude mouse assessed as tumor volume at 5 mg/kg, iv qd administered for 5 days measured after 9 days relative to control; assay type: functional
Mus musculus [14] = assay: Toxicity in athymic nude mouse xenografted with human MDA-MB-231met2 cells assessed as body weight loss at 5 mg/kg, iv qd administered for 5 days; assay type: organism-based; settings: in vivo, 120 h
Mus musculus [15] = assay: Toxicity in athymic nude mouse xenografted with human MDA-MB-231met2 cells assessed as mortality at 5 mg/kg, iv qd administered for 5 days; assay type: organism-based; settings: in vivo, 120 h
Mus musculus [16] = assay: In vivo inhibition of AICARFT in tumor of low folate diet fed nude mouse xenografted with human NCI-H460 cells assessed as increase in circulating AICAr levels at 0.3 to 30 mg/kg after 4 hrs relative to vehicle-treated control; assay type: functional
Mus musculus [17] = assay: In vivo inhibition of AICARFT in tumor of low folate diet fed nude mouse xenografted with human NCI-H460 cells assessed as increase in intratumoral ZMP levels at 0.3 to 30 mg/kg after 4 hrs relative to vehicle-treated control; assay type: functional
[18] = Clearance in CD-1 mouse at 1 mg/kg, iv by LC-MS/MS method; assay type: ADME, organism-based; settings: in vivo
[19] = Oral bioavailability in CD-1 mouse at 10 mg/kg by LC-MS/MS method; assay type: ADME, organism-based; settings: in vivo
[20] = AUC in CD-1 mouse at 10 mg/kg, po by LC-MS/MS method; assay type: ADME, organism-based; settings: in vivo
[21] = Equilibrium aqueous solubility of the compound at pH 2 after 20 hrs by HPLC method; assay type: physicochemical
[22] = Equilibrium aqueous solubility of the compound at pH 7.5 after 20 hrs by HPLC method; assay type: physicochemical
[23] = Dissociation constant, pKa of the compound; assay type: physicochemical
[24] = Equilibrium aqueous solubility of the compound at pH 6 after 20 hrs by HPLC method; assay type: physicochemical
[25] = Lipophilicity, log D of the compound at pH 7; assay type: physicochemical; settings: buffer

T1 sequence (P31939 whole entry): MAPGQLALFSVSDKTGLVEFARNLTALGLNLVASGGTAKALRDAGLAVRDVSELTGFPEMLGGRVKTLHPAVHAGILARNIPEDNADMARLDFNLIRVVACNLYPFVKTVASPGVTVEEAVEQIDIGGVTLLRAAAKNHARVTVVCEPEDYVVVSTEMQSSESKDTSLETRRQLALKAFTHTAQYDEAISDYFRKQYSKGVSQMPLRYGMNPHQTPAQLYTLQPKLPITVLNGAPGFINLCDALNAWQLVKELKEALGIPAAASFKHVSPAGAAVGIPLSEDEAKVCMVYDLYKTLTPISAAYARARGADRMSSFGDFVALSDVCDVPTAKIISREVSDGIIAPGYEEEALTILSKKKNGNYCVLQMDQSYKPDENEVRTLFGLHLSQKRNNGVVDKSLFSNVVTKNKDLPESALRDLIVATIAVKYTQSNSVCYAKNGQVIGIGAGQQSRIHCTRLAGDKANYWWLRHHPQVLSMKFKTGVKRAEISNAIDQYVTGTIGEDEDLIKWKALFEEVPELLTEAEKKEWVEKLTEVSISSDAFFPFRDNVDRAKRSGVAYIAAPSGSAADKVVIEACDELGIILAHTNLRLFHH

Row | Structure (SMILES) | IC50 [1] | EC50 [3] | fraction unbound [4] | concentration at 1 h [5] | permeability [6] | further results
1 | N#Cc1ccc(S(=O)(=O)Nc2ccc3nc(N)[nH]c(=O)c3c2)cc1 | 18100 nM |  |  |  |  | 
2 | Nc1nc2ccc(NS(=O)(=O)c3ccc(C(=O)N[C@@H](CCC(=O)O)C(=O)O)cc3)cc2c(=O)[nH]1 | 1000 to 5000 nM |  |  |  |  | Ki [2]: 6 nM
3 | CN(Cc1cnc2nc(N)nc(N)c2n1)c1ccc(C(=O)N[C@@H](CCC(=O)O)C(=O)O)cc1 [METHOTREXATE] |  |  |  |  |  | Activity [13]: 88%; Activity (Mus musculus [14]): Non-Toxic; Activity (Mus musculus [15]): Non-Toxic
4 | O=C1NC(=O)c2cc(NS(=O)(=O)c3ccc(Cl)cc3)ccc21 | 34800 nM |  |  |  |  | 
5 | N#Cc1ccc(S(=O)(=O)Nc2cccc(C(N)=O)c2)cc1 | 90000 nM |  |  |  |  | 
6 | N#Cc1ccc(S(=O)(=O)Nc2ccc3cc[nH]c(=O)c3c2)cc1 | 608 nM | 567 nM |  |  | 0.55% | clearance [18]: 4.47 mL/min/kg; bioavailability [19]: 43%; AUC [20]: 16100 ng·h/mL; solubility thermodynamic at 20 h [21]: 30 µg/mL (≈ 92.2 µM); solubility thermodynamic at 20 h [22]: 160 µg/mL (≈ 492 µM); pKa [23]: 6.93; solubility thermodynamic at 20 h [24]: 40 µg/mL (≈ 123 µM); logD [25]: 1.7
7 | N#Cc1ccc(S(=O)(=O)Nc2cc3c(=O)[nH]ccc3cc2F)cc1 | 723 nM | 1810 nM |  |  | 0.35% | clearance [18]: 2.34 mL/min/kg; bioavailability [19]: 79%; AUC [20]: 55800 ng·h/mL; solubility thermodynamic at 20 h [21]: 10 µg/mL (≈ 29.1 µM); solubility thermodynamic at 20 h [22]: 230 µg/mL (≈ 670 µM); pKa [23]: 5.97; solubility thermodynamic at 20 h [24]: 20 µg/mL (≈ 58.3 µM); logD [25]: 0.6
8 | N#Cc1ccc(S(=O)(=O)Nc2ccccc2)cc1 | > 100000 nM |  |  |  |  | 

The next lines start with results.

Row | IC50 [1] | EC50 [3] | fraction unbound [4] | concentration at 1 h [5] | permeability [6] | Structure (SMILES) | further results
9 | < 5 nM | 4 nM | < 0.03 | 10.5 µM |  | CCC1(C)CC(c2ccc(S(=O)(=O)Nc3cc4c(=O)[nH]ccc4cc3F)s2)=CNC1=O (stereo not given) | 
10 | 18 nM | 18 nM | 0.03 | 6.7 µM | 0.17% | O=c1[nH]ccc2cc(F)c(NS(=O)(=O)c3ccc(N4CCC[C@H](O)C4)s3)cc12 | 
11 | < 5 nM | 10 nM | < 0.02 | 30.6 µM | 0.09% | CC1(C)CC(c2ccc(S(=O)(=O)Nc3cc4c(=O)[nH]ccc4cc3F)s2)=CNC1=O | fAUC (Mus musculus [7]): 2.159 µM·h; half-life [8]: 5.2 h; CL free (Mus musculus [9]): 19 mL/min/kg; fCmax (Mus musculus [10]): 187 nM; bioavailability [11]: 23%; Vduss (Mus musculus [12]): 9 L/kg
12 | 20 nM | 17 nM | 0.05 | 12 µM | 0.17% | O=c1[nH]ccc2cc(F)c(NS(=O)(=O)c3ccc(N4C[C@@H](F)[C@@H](O)C4)s3)cc12 (stereo in doubt) | 
13 | 7.8 nM | 7.9 nM | 0.05 | 9.1 µM | 0.18% | O=c1[nH]ccc2cc(F)c(NS(=O)(=O)c3ccc(N4C[C@@H](O)[C@@H](F)C4)s3)cc12 (stereo in doubt) | fAUC (Mus musculus [7]): 1.52 µM·h; fold change (FC) (Mus musculus [16]): 80; half-life [8]: 2.8 h; CL free (Mus musculus [9]): 44 mL/min/kg; fCmax (Mus musculus [10]): 232 nM; fold change (FC) (Mus musculus [17]): >100; bioavailability [11]: 33%; Vduss (Mus musculus [12]): 9 L/kg
14 | 12 nM | 27 nM | 0.03 | 33 µM | 0.28% | O=c1[nH]ccc2cc(F)c(NS(=O)(=O)c3ccc(N4C[C@@H](O)C(F)(F)C4)s3)cc12 | fAUC (Mus musculus [7]): 2.11 µM·h; fold change (FC) (Mus musculus [16]): 80; half-life [8]: 3.2 h; CL free (Mus musculus [9]): 50 mL/min/kg; fCmax (Mus musculus [10]): 293 nM; fold change (FC) (Mus musculus [17]): >100; bioavailability [11]: 55%; Vduss (Mus musculus [12]): 15 L/kg
15 | 13 nM | 31 nM | 0.02 | 19.3 µM | 0.34% | O=c1[nH]ccc2cc(F)c(NS(=O)(=O)c3ccc(N4C[C@H](O)C(F)(F)C4)s3)cc12 | 
16 | < 5 nM | 62 nM | 0.05 | 1.7 µM | 0.09% | O=c1ccc(-c2ccc(S(=O)(=O)Nc3cc4c(=O)[nH]ccc4cc3F)s2)c[nH]1 | 
17 | 26 nM | 68 nM | 0.03 | 1.7 µM | 0.17% | O=c1[nH]ccc2cc(F)c(NS(=O)(=O)c3ccc(N4CCC[C@@H](O)C4)s3)cc12 | 
18 |  |  | 0.05 | 4.7 µM | 0.29% | O=c1[nH]ccc2cc(F)c(NS(=O)(=O)c3ccc(N4CC[C@H](O)C4)s3)cc12 | 
19 | 13 nM | 21 nM | 0.05 | 4 µM | 0.25% | O=c1[nH]ccc2cc(F)c(NS(=O)(=O)c3ccc(N4CCC(O)CC4)s3)cc12 | 
